Assay results as given in article PMC4139342, “Pharmacokinetics-Pharmacodynamics Analysis of Bicyclic 4-Nitroimidazole Analogs in a Murine Model of Tuberculosis” (PLoS ONE, 2014).
Values after ≈ are worked out from the molar mass of the structure shown. Read-outs that look alike come from different tables or passages of the source.

Assays:
[1] = cited from earlier work
[2] = In vivo plasma PK after intravenous dosing; settings: mice; for half-life: female, CD-1, mouse, plasma, iv, T1/2 (i.v)
[3] = Cytotoxicity against THP1 macrophage cell lines; format: cell-based; settings: human
in vitro [4] = settings: mouse, plasma
[5] = In vivo plasma PK after oral dosing in CM-2 formulation; settings: for half-life: female, CD-1, mouse, plasma, po
[6] = not given; remark: listed apart in the source
[7] = In vivo lung PK after oral dosing; settings: female, CD-1, mouse
[8] = female, CD-1, mouse, in vivo, po, 25 mg/kg
in vivo [9] = settings: female, CD-1, mouse, iv; for clearance: i.v. CL
Mtb H37Rv = experiment: In vivo mouse efficacy, established murine TB model; parameters: species or system Balb/c mice; settings: for Efficacy compared with PA-824, in words: significance at P<0.05; for Dose dependence of efficacy, in words: 25 versus 100 mg/kg oral daily for 4 weeks; for log reduction at 25 mg/kg / log reduction at 100 mg/kg: Mycobacterium tuberculosis, H37RV, po, 672 h, read-out: Mean log lung CFU reduction ± SEM compared to untreated controls
Experimental: In vivo mouse efficacy studies were determined after intranasal infection of Balb/c mice with 10^3 cfu Mtb H37Rv. Treatment was initiated 4 weeks after infection. Compounds were orally administered in CM-2 formulation for 4 weeks daily. Bacterial loads were determined at 2 and 4 weeks post treatment. Statistical analysis was done by a one-way analysis of variance, followed by a multiple comparison analysis of variance by a one-way Tukey test (GraphPad Prism, version 5.02, San Diago, California USA, www.graphpad.com). Differences were considered statistically significant at the 95% level of confidence.

in vivo [10] = settings: female, CD-1, mouse, po
in vitro [11] = settings: human, Caco-2
[12] = female, CD-1, mouse, in vivo, po
[13] = system: M. tuberculosis (Mtb) (H37Rv, ATCC 27294); experiment: microbe, parasite or virus in culture; format: cell-based; settings: for MIC99: Mycobacterium tuberculosis
physchem [14] = experiment: physchem
in vivo [15] = settings: female, CD-1, mouse, po; remark: listed apart in the source
physchem [16] = settings: pH 6.8, aqueous buffer, thermodynamic from solid
[17] = system: CaCo-2 colon carcinoma cell lines
[18] = parameters: method as in PMID 19528280; settings: healthy subjects, oral daily doses for 7 days; cited from earlier work
Mtb = settings: murine model, cited from earlier work
[19] = parameters: method as in PMID 16870750; settings: mice dosed for 2 months; cited from earlier work
[20] = 5 mg/kg, i.v. dosing at 5 mg/kg
[21] = 25 mg/kg oral daily for 4 weeks, 5 animals
[22] = 25 mg/kg oral daily for 4 weeks
[23] = 100 mg/kg oral daily for 4 weeks, 5 animals
[24] = 100 mg/kg oral daily for 4 weeks
[25] = 25 mg/kg, Lung to Plasma ratio AUC24
[26] = 25 mg/kg, Lung to Plasma ratio Cmax
[27] = mouse plasma, single oral dose 25 mg/kg, CM-2
[28] = 25 mg/kg oral daily for 4 weeks, mean value from three independent experiments (n = 15)

## CC[C@H]1OC(=O)[C@H](C)[C@@H](O[C@H]2C[C@@](C)(OC)[C@@H](O)[C@H](C)O2)[C@H](C)[C@@H](O[C@@H]2O[C@H](C)C[C@H](N(C)C)[C@H]2O)[C@](C)(O)C[C@@H](C)CN(C)[C@H](C)[C@@H](O)[C@]1(C)O [Azithromycin]
[1]
  AUC lung/serum: 21
  Vss: 33 L/kg

## O=[N+]([O-])c1cn2c(n1)OC[C@@H](NCc1ccc(OC(F)(F)F)c(Cl)c1)C2 [NI-135]
[2]; [20]
  half-life: 4 h
other
  PAMPA %FA: 90%
  PAMPA Log Pe: –4.5 cm/sec
[3]
  CC50: > 10 µg/mL
In vitro [4]
  fraction unbound: 0.085
[5]; 25 mg/kg
  half-life: 2.9 h
[6]
  Solubility pH 6.8: 77.0 µg/mL
[7]; 25 mg/kg
  half-life: 3.3 h
[8]
  Plasma free fCmax: 0.1 µg/mL
In vivo [9]; 5 mg/kg
  Vd: 4.2 L/kg
  clearance: 41 mL/min/kg
Mtb H37Rv; [21]
  Mean log lung CFU reduction ± SEM compared to untreated controls: 1.48 ± 0.07 log CFU
  Mean log lung CFU ± SEM: 4.76±0.07 log CFU
  log reduction at 25 mg/kg: 1.48 ± 0.07
Mtb H37Rv; [22]
  Efficacy compared with PA-824, in words: comparable efficacy to PA-824
Mtb H37Rv; [23]
  Mean log lung CFU ± SEM: 4.36±0.07 log CFU
  log reduction at 100 mg/kg: 1.88 ± 0.07
Mtb H37Rv; [24]
  Efficacy compared with PA-824, in words: comparable efficacy to PA-824
Mtb H37Rv
  Dose dependence of efficacy, in words: dose dependent increase in efficacy
In vivo [10]; 25 mg/kg
  AUC: 4800 ng·h/mL
  Cmax: 1200 ng/mL
  Tmax: 0.5 h
  bioavailability: 51%
In vitro [11]
  Papp A→B: 23.4 ×10⁻⁶ cm/s
  Papp B→A: 15.3 ×10⁻⁶ cm/s
  efflux ratio: 0.6
[12]; 25 mg/kg
  Absolute lung concentrations, fold lower than PA-824: 2.5-7.5 fold
  Lung AUC24: 18.6 µg·h/g
  Lung Cmax: 5.5 µg/g
[13]
  In vitro potency relative to PA-824: 10 times
  MIC99: 0.03 µg/mL (≈ 0.0764 µM)
Physchem [14]
  logP: 3
In vivo [15]; 25 mg/kg
  Tmax: 0.5 h
In vivo [15]; [25]
  Kp: 3.9
In vivo [15]; [26]
  Kp: 4.6

## O=[N+]([O-])c1cn2c(n1)OC[C@@H](NCc1ccc(OC(F)(F)F)c(F)c1)C2 [NI-136]
[2]; i.v. dosing at 5 mg/kg
  T1/2 (i.v): 1.3 h
other
  PAMPA %FA: 83%
  PAMPA Log Pe: –4.7 cm/sec
[3]
  CC50: > 10 µg/mL
In vitro [4]
  fraction unbound: 0.173
[5]; 25 mg/kg
  half-life: 2 h
[6]
  Solubility pH 6.8: 43.0 µg/mL
[7]; 25 mg/kg
  half-life: 2.5 h
[8]
  Plasma free fCmax: 0.3 µg/mL
In vivo [9]; 5 mg/kg
  Vd: 1.8 L/kg
  clearance: 25.1 mL/min/kg
Mtb H37Rv; [21]
  Mean log lung CFU reduction ± SEM compared to untreated controls: 1.31 ± 0.06 log CFU
  Mean log lung CFU ± SEM: 4.93±0.06 log CFU
  log reduction at 25 mg/kg: 1.31 ± 0.06
Mtb H37Rv; [22]
  Efficacy compared with PA-824, in words: comparable efficacy to PA-824
Mtb H37Rv; [23]
  Mean log lung CFU ± SEM: 4.18±0.17 log CFU
  log reduction at 100 mg/kg: 2.06 ± 0.17
Mtb H37Rv; [24]
  Efficacy compared with PA-824, in words: comparable efficacy to PA-824
Mtb H37Rv
  Dose dependence of efficacy, in words: dose dependent increase in efficacy
In vivo [10]; 25 mg/kg
  AUC: 10700 ng·h/mL
  Cmax: 2000 ng/mL
  Tmax: 0.5 h
  bioavailability: 64%
In vitro [11]
  Papp A→B: 15.4 ×10⁻⁶ cm/s
  Papp B→A: 12.6 ×10⁻⁶ cm/s
  efflux ratio: 0.8
[12]; 25 mg/kg
  Absolute lung concentrations, fold lower than PA-824: 2.5-7.5 fold
  Lung AUC24: 39.8 µg·h/g
  Lung Cmax: 7.2 µg/g
[13]
  In vitro potency relative to PA-824: 10 times
  MIC99: 0.03 µg/mL (≈ 0.0797 µM)
Physchem [14]
  logP: 2.6
In vivo [15]; 25 mg/kg
  Tmax: 0.5 h
In vivo [15]; [25]
  Kp: 3.7
In vivo [15]; [26]
  Kp: 3.6

## O=[N+]([O-])c1cn2c(n1)OC[C@@H](NCc1ccc(OC(F)(F)F)c(O)c1)C2 [NI-147]
[2]; [20]
  half-life: 0.3 h
other
  PAMPA %FA: 43%
  PAMPA Log Pe: –5.2 cm/sec
[5]; 25 mg/kg
  half-life: 0.2 h
[6]
  Solubility pH 6.8: 56.0 µg/mL
In vivo [9]; 5 mg/kg
  Vd: 0.4 L/kg
  clearance: 70.8 mL/min/kg
In vivo [10]; 25 mg/kg
  AUC: 20 ng·h/mL
  Cmax: 40 ng/mL
  Tmax: 0.1 h
  bioavailability: 0.3%
[12]; 25 mg/kg
  Lung AUC24: 2.6 µg·h/g
  Lung Cmax: 0.5 µg/g
[13]
  MIC99: 0.03 µg/mL (≈ 0.0802 µM)
Physchem [14]
  logP: 2.4
In vivo [15]; 25 mg/kg
  Tmax: 0.1 h

## O=C(CO[C@@H]1COc2nc([N+](=O)[O-])cn2C1)N1CCN(c2ccc(C(F)(F)F)cn2)CC1 [NI-644]
[2]; 10 mg/kg, i.v. dosing at 10 mg/kg
  half-life: < 1 h
[2]; i.v. dosing at 10 mg/kg, 10 mg/kg
  T1/2 (i.v): 0.9 h
other
  PAMPA %FA: 83%
  PAMPA Log Pe: –4.9 cm/sec
[3]
  CC50: > 10 µg/mL
In vitro [4]
  fraction unbound: 0.1
[5]; 50 mg/kg
  half-life: 3.6 h
[7]; 50 mg/kg
  half-life: 2.9 h
In vivo [9]; 10 mg/kg
  Vd: 0.7 L/kg
  clearance: 9.5 mL/min/kg
Mtb H37Rv; [21]
  Mean log lung CFU ± SEM: 6.18±0.03 log CFU
  log reduction at 25 mg/kg: 0.48 to 0.89
Mtb H37Rv; [22]
  Efficacy compared with PA-824, in words: significantly (P<0.05) less efficacious than PA-824
Mtb H37Rv; [23]
  Mean log lung CFU ± SEM: 6.09±0.07 log CFU
  log reduction at 100 mg/kg: 0.57 ± 0.07
Mtb H37Rv; [24]
  Efficacy compared with PA-824, in words: significantly (P<0.05) less efficacious than PA-824
Mtb H37Rv
  Dose dependence of efficacy, in words: no dose-dependent increase in bactericidal activity
Physchem [16]
  solubility: 14 µg/mL (≈ 30.7 µM)
In vivo [10]; 50 mg/kg
  AUC: 89500 ng·h/mL
  Cmax: 16200 ng/mL
  Tmax: 1 h
  bioavailability: 100%
In vitro [11]
  Papp A→B: 2.8 ×10⁻⁶ cm/s
  Papp B→A: 13.7 ×10⁻⁶ cm/s
  efflux ratio: 4.8
[12]; 50 mg/kg
  Lung AUC24: 38.1 µg·h/g
  Lung Cmax: 7.5 µg/g
[13]
  MIC99: 0.09 µg/mL (≈ 0.197 µM)
Physchem [14]
  logP: 2.6
[17]
  Permeability in the Caco-2 assay, in words: moderate permeability
In vivo [15]; 50 mg/kg
  Tmax: 1 h
In vivo [15]; 50 mg/kg, Lung to Plasma ratio AUC24
  Kp: 0.4
In vivo [15]; 50 mg/kg, Lung to Plasma ratio Cmax
  Kp: 0.5

## O=[N+]([O-])c1cn2c(n1)OC[C@@H](OCc1ccc(OC(F)(F)F)cc1)C2 [PA-824, (6S)-2-nitro-6-{[4-(trifluoromethoxy)benzyl]oxy}-6,7-dihydro-5H-imidazo[2,1-b][1, 3]oxazine, reference compound]
[2]; i.v. dosing at 10 mg/kg
  T1/2 (i.v): 1.6 h
  i.v. CL: 12.1 mL/min/kg
  i.v. Vss: 1.6 L/kg
[18]
  Tolerability: well tolerated
Mtb; for 1-log10 kill
  fT>MIC in plasma required: 48%
Mtb; for 1.59 log10 kill
  fT>MIC in plasma required: 77%
Mtb; for bacteriostatic effect
  fT>MIC in plasma required: 22%
[3]; THP1 macrophage cell line, THP1 macrophage cell lines, read-out: Cytotoxicity CC50
  CC50: > 10 µg/mL
In vitro [4]
  fraction unbound: 0.1
[5]; mice, p.o. 25 mg/kg versus i.v. 5 mg/kg (PA-824: i.v. 10 mg/kg)
  F, oral bioavailability: 100%
[5]; [27]
  T1/2 (p.o.): 2.7
  p.o. Tmax: 2 h
[5]; mouse plasma, total concentration, single oral dose 25 mg/kg, CM-2
  p.o. Cmax: 6000 ng/mL
[7]; 25 mg/kg
  half-life: 4.8 h
[8]
  Plasma free fCmax: 0.6 µg/mL
PAMPA permeability; effective permeability
  PAMPA Log Pe: –4.2 cm/sec
PAMPA permeability; fraction absorbed
  PAMPA %FA: 99%
Mtb H37Rv; [28]
  Mean log lung CFU reduction ± SEM compared to untreated controls: 1.48 ± 0.09 log CFU
  log reduction at 25 mg/kg: 1.48 ± 0.09
Mtb H37Rv
  Dose dependence of efficacy, in words: dose dependent increase in efficacy
Mtb H37Rv; [21]
  log reduction at 25 mg/kg: 1.23 to 1.56
Mtb H37Rv; [23]
  log reduction at 100 mg/kg: 1.95 ± 0.13
Mtb H37Rv; 100 mg/kg oral daily for 4 weeks, mean value from three independent experiments (n = 15)
  log reduction at 100 mg/kg: 2.3 ± 0.08
Physchem [16]
  solubility: 13 µg/mL (≈ 36.2 µM)
In vivo [10]; 25 mg/kg
  AUC: 50900 ng·h/mL
In vitro [11]
  Papp A→B: 27.6 ×10⁻⁶ cm/s
  Papp B→A: 20.4 ×10⁻⁶ cm/s
  efflux ratio: 0.8
[12]; 25 mg/kg
  Lung AUC24: 139.9 µg·h/g
  Lung Cmax: 17.8 µg/g
[13]
  MIC99: 0.3 µg/mL (≈ 0.835 µM)
Physchem [14]
  logP: 2.75
[19]
  Plasma accumulation: absence of plasma accumulation
In vivo [15]; 25 mg/kg
  Tmax: 0.3 h
In vivo [15]; [25]
  Kp: 2.7
In vivo [15]; [26]
  Kp: 3

## COc1nc2ccc(Br)cc2cc1[C@@H](c1ccccc1)[C@@](O)(CCN(C)C)c1cccc2ccccc12 [TMC207]
[1]; lungs
  AUC L/P ratio: 22
